In patent US11083717B2, “Compositions and methods for drug sensitization of parasites” (The Texas A&M University System, priority 2015, dated 2021):

Key:
S. cerevisiae = assay: in vitro; details: Saccharomyces cerevisiae
human fibroblast = assay: in vitro; details: human
[1] = biological target: Human ether-a-go-go-related gene (hERG) (Homo sapiens, UniProt Q12809); assay: hERG test (potential cardiotoxicity); assay type: biochemical; details: read-out: hERG (Abbvie)
[2] = MCLint in vitro intrinsic clearance, mouse (MLM); assay type: in vitro ADME
Kinetic solubility = assay type: physicochemical
Plasma protein binding = assay type: in vitro ADME; details: mouse, mice, read-out: PPB (converted)
CP = assay: Calf study of CP infection; assay type: in vivo, calves
Method: New born calves are susceptible to CP infection. They can develop severe diarrhea like humans. Calves were inoculated with 5×10^7 CP oocysts/calf on day 0. Calves had diarrhea in both the groups at onset of dosing. Treatment was started on day 3. Calves were given NZ-369 @ 8.5 mg/kg every 12 hrs for 5 days. Fecal volume, urine volume, daily clinical evaluation, fecal consistency scores and weight gains were evaluated.

Eimeria = assay: Coccidiosis in broiler chicks, duodenal lesion scores; assay type: in vivo; details: 20 mg/bird daily by oral gavage, FIG. 7
Method: To determine the effects of NZ-366 and NZ-369 on coccidiosis in broiler chicks, experimental animals were divided into 4 treatment groups: Unmedicated (UNM), those receiving the experimental compounds (366 and 369); and those receiving Salinomycin (SAL).
Compounds NZ-366 and NZ-369 were administered at a dose of 20 mg/bird by oral gavage daily beginning from 11 days post-hatching. Salinomycin was administered in-feed beginning from 10 days post-hatching. Broilers were administered a 1000× dose of coccidiosis vaccine by oral gavage at 13 days post-hatching.
Lesion scores in the duodenum were lower in broiler chicks administered NZ-369 as compared to unmedicated broilers and those administered NZ-366. […] In FIG. 7, lesion scores expressed as the mean±SEM from 24 broilers per treatment.

Chain of Human ether-a-go-go-related gene (hERG) (Q12809 whole entry): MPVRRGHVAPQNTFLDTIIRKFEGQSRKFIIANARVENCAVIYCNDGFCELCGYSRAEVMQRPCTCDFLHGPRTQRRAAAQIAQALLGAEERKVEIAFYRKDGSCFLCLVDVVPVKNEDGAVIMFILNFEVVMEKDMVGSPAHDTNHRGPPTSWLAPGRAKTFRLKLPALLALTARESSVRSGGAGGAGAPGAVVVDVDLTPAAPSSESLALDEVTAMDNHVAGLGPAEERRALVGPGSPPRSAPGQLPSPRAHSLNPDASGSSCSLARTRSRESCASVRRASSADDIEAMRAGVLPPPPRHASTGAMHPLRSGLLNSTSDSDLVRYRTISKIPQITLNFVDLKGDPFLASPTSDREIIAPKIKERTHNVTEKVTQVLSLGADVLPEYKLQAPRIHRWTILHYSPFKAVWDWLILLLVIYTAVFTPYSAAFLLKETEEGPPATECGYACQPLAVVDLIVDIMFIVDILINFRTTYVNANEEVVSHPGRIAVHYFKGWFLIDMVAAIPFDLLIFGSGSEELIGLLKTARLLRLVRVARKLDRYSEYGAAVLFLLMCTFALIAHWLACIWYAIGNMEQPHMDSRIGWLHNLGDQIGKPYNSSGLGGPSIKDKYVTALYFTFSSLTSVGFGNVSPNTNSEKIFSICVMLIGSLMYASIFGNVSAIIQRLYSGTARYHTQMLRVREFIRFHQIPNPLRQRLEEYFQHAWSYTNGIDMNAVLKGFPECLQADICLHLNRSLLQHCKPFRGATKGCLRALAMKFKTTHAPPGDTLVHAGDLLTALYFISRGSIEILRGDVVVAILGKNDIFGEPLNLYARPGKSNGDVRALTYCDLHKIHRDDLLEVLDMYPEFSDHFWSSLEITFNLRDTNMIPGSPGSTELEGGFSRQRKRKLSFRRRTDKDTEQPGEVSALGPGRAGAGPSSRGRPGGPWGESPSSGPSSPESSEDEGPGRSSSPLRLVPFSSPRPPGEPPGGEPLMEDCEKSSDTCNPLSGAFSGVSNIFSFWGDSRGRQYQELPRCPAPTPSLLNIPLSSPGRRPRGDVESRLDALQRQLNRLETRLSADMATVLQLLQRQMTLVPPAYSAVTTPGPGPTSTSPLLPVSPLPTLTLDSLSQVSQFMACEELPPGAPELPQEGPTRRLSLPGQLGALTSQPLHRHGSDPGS

Compound: CNC(=O)C(C)c1ccc(Oc2nc3ccc(Cl)cc3s2)cc1 (stereo not drawn) [NZ-369, 2-{4-[(6-chloro-1,3-benzothiazol-2-yl)oxy]phenyl}-N-methylpropanamide]
- IC50 (in vitro; Saccharomyces cerevisiae): > 100 µM
- IC50 (in vitro; human): > 100 µM
- concentrations at which not toxic, S. cerevisiae cytotoxicity testing (S. cerevisiae): ≥ 100 µM
- concentrations at which not toxic, human fibroblast cytotoxicity testing (human fibroblast): ≥ 100 µM
- IC50 [1]: > 30 µM
- MCLint (mL/min/g liver), MLM [2]: MLM = 3.3 mL/min/g liver
- Kinetic Sol. (Kinetic solubility): 86 µM
- fraction unbound (Plasma protein binding): 0.015
- fecal volume vs control (CP; 8.5 mg/kg every 12 hrs for 5 days from day 3, through day 8 post infection, FIG. 2): marked reduction in fecal volume
- clinical evaluation scores (CP; 8.5 mg/kg every 12 hrs for 5 days, FIG. 4): higher clinical evaluation scores and greater improvement post-infection
- weight over the trial period vs control calf (CP; 8.5 mg/kg every 12 hrs for 5 days, FIG. 6): maintained their weight
- fecal consistency score vs control calves (CP; 8.5 mg/kg every 12 hrs for 5 days, days 4-7 post infection, FIG. 5): lower fecal consistency score
- urine output vs control calves (CP; 8.5 mg/kg every 12 hrs for 5 days, except on day 4 post-infection, FIG. 3): Greater urine output
- lesion scores in the duodenum vs unmedicated broilers and NZ-366 (Eimeria): lower
- reduction of duodenal lesion scores compared with Salinomycin (Eimeria; Salinomycin in-feed): comparable to broiler chicks administered Salinomycin
